Experimental data reported in PubChem BioAssay (NCI).
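Method: 48-hour compound exposure of cells in 96-well plates, five concentrations, linear interpolation of endpoints. GI50 = concentration required for 50% inhibition of growth. TGI is the concentration that stops growth completely.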

What was measured:
Test in all cases: NCI-60 cell line screen, 48 h
[1] = test system: OVCAR-4 ovarian
[2] = test system: LOX IMVI melanoma
[3] = test system: KM12 colon
[4] = test system: HOP-62 NSCLC
[5] = test system: HCT-116 colon
[6] = test system: SK-OV-3 ovarian
[7] = test system: NCI-H460 lung
[8] = test system: BT-549 breast
[9] = test system: SF-268 CNS
[10] = test system: OVCAR-3 ovarian

SMILES	GI50 [1]	TGI [1]	GI50 [2]	TGI [2]	GI50 [3]	TGI [3]	GI50 [4]	TGI [4]	GI50 [5]	TGI [5]	TGI [6]	GI50 [7]	TGI [7]	GI50 [8]	TGI [8]	GI50 [9]	TGI [9]	GI50 [10]	TGI [10]	GI50 [6]
O=C1c2cc3c(cc2-c2c1c1ccc([N+](=O)[O-])cc1c(=O)n2CCCCl)OCO3	7.34 µM	> 100 µM	0.0742 µM	> 100 µM	2.27 µM	> 100 µM	0.383 µM	> 100 µM	6.38 µM	> 100 µM	> 100 µM	0.0277 µM	> 100 µM	0.308 µM	24.5 µM	0.102 µM	> 100 µM	4.8 µM	> 100 µM	
CCOc1ccc2c(c1)/C(=C\C=C\C1CC(C)C3CC(OCC)CCC3N1CC)CC(C)N2CC (configuration not stated)	0.459 µM	2 µM	0.871 µM	2.27 µM	0.673 µM	1.92 µM	0.755 µM	2.25 µM	0.789 µM	2.17 µM	1.92 µM	0.416 µM	1.64 µM	0.906 µM	2.46 µM	0.882 µM	2.41 µM	0.915 µM	2.2 µM	0.596 µM
NC(=O)NC(=O)CI	1.77 µM	4.08 µM	1.08 µM	2.71 µM	18.2 µM	35.5 µM	20.5 µM	43.1 µM	1.39 µM	3.12 µM	> 56.2 µM	18.5 µM	37.3 µM	4.28 µM	11.3 µM	16.2 µM	36.4 µM	1.92 µM	3.45 µM	27.4 µM
Cc1cc(S(N)(=O)=O)c(S/C(=N\NS(=O)(=O)c2ccc(Cl)cc2)c2ccc(Cl)cc2)cc1Cl	> 100 µM	> 100 µM	> 100 µM	> 100 µM	70.6 µM	> 100 µM	> 100 µM	> 100 µM	> 100 µM	> 100 µM	> 100 µM	> 100 µM	> 100 µM	> 100 µM	> 100 µM	> 100 µM	> 100 µM	> 100 µM	> 100 µM	> 100 µM
COc1ccccc1Nc1nc(-c2cc3cccc(C(F)(F)F)c3oc2=O)cs1	0.185 µM	> 63.3 µM	0.14 µM	> 82.2 µM	0.0723 µM	22.3 µM	0.134 µM	29.7 µM	0.0805 µM	11.1 µM	> 93.9 µM	0.218 µM	> 39.5 µM	0.26 µM		0.214 µM	> 100 µM	0.0624 µM	0.203 µM	0.237 µM
CC(C)(C)c1ccc(-c2nnc(SCc3ccc(Cl)cc3)n2-c2cccc(C(F)(F)F)c2)cc1		> 100 µM		> 100 µM		> 100 µM		> 100 µM		> 100 µM	> 100 µM		> 100 µM		> 100 µM		> 100 µM		16.8 µM	
COc1ccc(Cc2ccccc2C(=O)O)c2ccccc12		> 100 µM		54.4 µM		42.9 µM		> 100 µM		47.3 µM	> 100 µM		38.9 µM		> 100 µM		87.5 µM		47.1 µM	
COC(=O)c1ccc2c(c1)nc(-c1ccc(Cl)cc1)n2-c1cc(C(C)(C)C)[nH]n1	3.4 µM	> 100 µM	3.7 µM	14.5 µM	2.12 µM	6.07 µM	3.41 µM	21 µM	3.46 µM	12.3 µM	31 µM	2.95 µM	8.81 µM	3.35 µM	11.5 µM	3.29 µM	17.8 µM	2.35 µM	6.13 µM	3.71 µM
O=C1c2cccnc2-c2nc(-c3ccc([N+](=O)[O-])cc3)cc3c2c1nc1ccccc13	13.4 µM	30.7 µM	2.28 µM	> 100 µM	3.35 µM	19.4 µM	12.2 µM	28.3 µM	2.56 µM	> 26.1 µM	39 µM	2.34 µM	8.62 µM	10.4 µM	28.6 µM	3.08 µM	19.8 µM	0.261 µM	1.74 µM	11.4 µM
Fc1ccc(Nc2nc(Nc3ccc(-c4nc5ccccc5[nH]4)cc3)nc(N3CCCC3)n2)cc1	3.65 µM	14.6 µM	1.77 µM	3.55 µM	2.98 µM	10 µM	2.12 µM	5.09 µM	1.78 µM	3.52 µM	31.6 µM	2 µM	4.2 µM	6.9 µM	20.7 µM	2.67 µM	7.99 µM	2.75 µM	6.61 µM	15.9 µM
COC(=O)c1c(-c2ccccc2)csc1NC(=O)c1c(-c2ccccc2)noc1C	5.38 µM	> 100 µM	0.24 µM	3.56 µM	0.802 µM	> 100 µM	4.56 µM	> 100 µM	0.379 µM	> 100 µM	> 100 µM	0.177 µM	> 100 µM		> 100 µM	0.89 µM	> 100 µM	3.79 µM	> 100 µM	3.08 µM
COc1ccc(C2CC(c3cc(OC)c(OC)c(OC)c3)=NN2)cc1 (configuration not stated)	12.8 µM	> 100 µM	5.52 µM	> 100 µM	4.49 µM	> 100 µM	28.7 µM	99.2 µM	3.93 µM	> 100 µM	> 100 µM	3.47 µM	30.1 µM	8.02 µM	> 100 µM	20 µM	> 100 µM	3.74 µM	55.3 µM	12.4 µM
CNCCNc1nc2ccccc2c2c(=O)c3cccc(OC)c3sc12	1.47 µM	3.16 µM	1.27 µM	2.63 µM	1.62 µM	3.11 µM	1.25 µM	2.92 µM	0.547 µM	1.86 µM	3.84 µM	1.23 µM	2.72 µM	1.7 µM	3.65 µM	1.56 µM	3.33 µM	1.52 µM	3.02 µM	1.65 µM
C[n+]1c2ccccc2c(NC2CCNCC2)c2[nH]c3ccccc3c21	0.253 µM	2.57 µM	1.68 µM	5.52 µM	0.718 µM	5.77 µM	0.473 µM	5.17 µM	0.812 µM	4.53 µM	3 µM	0.223 µM	1.53 µM	2.13 µM	13.3 µM	0.0378 µM	0.773 µM	0.969 µM	5.87 µM	0.302 µM
O=C(/C=N/O)c1c(-c2ccccc2)[nH]c(-c2ccccc2)c1-c1ccccc1		42.9 µM		41.3 µM		28.2 µM		> 100 µM		72.6 µM	35.1 µM		41.8 µM		11.3 µM		49.7 µM		58.7 µM	
O=C(CC1C(=O)Nc2ccccc2S1=O)Nc1cccc(Cl)c1 (configuration not stated)		> 100 µM		> 100 µM		> 81.5 µM		> 77.6 µM		> 67.3 µM	> 100 µM		> 83.2 µM		77.6 µM		> 100 µM		> 79.2 µM	
COC(=O)c1oc2c(C(=O)/C=C/c3ccc(OC)cc3)c(OCCCN3CCCCC3)ccc2c1C	2.49 µM	9.15 µM	1.45 µM	2.82 µM	1.7 µM	3.66 µM	1.67 µM	3.48 µM	1.24 µM	3.02 µM	4.35 µM	1.54 µM	3.18 µM	2.89 µM	9.11 µM	2.24 µM	4.69 µM	1.63 µM	3.72 µM	1.25 µM
